IC50 data for 17 molecules are collected here from patent US9765074B2, “Inhibitors of the renal outer medullary potassium channel” (Merck Sharp & Dohme Corp., priority 2013, dated 2017).

For the test, the target named is T1, hROMK (hKir1.1) (Homo sapiens, UniProt P48048).
T1 construct: expressed in transfected cells
T1 sequence (P48048 1-391): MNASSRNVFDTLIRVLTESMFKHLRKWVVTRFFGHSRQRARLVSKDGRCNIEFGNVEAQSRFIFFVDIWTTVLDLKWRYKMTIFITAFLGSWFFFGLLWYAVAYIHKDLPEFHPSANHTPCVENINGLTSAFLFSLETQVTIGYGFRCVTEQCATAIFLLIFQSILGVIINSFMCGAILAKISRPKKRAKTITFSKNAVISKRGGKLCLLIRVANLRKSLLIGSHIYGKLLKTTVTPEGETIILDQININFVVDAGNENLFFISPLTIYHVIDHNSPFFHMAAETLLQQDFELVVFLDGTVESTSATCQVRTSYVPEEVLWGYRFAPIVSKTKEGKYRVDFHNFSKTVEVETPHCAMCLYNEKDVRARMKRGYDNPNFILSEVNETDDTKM
Description: Thallium Flux Assay (ROMK channel functional thallium flux, FLIPR-Tetra). The format is cell-based. Conditions: HEK293 cells stably expressing hROMK (hKir1.1); 30 min compound incubation. As for the experimental part: The following Thallium Flux Assay was performed on each of the final product compounds in the Examples.
Cell Culture Conditions—HEK293 cells stably expressing hROMK (hKir1.1) were grown at 37° C. in a 10% CO2 humidified incubator in complete growth media: Dulbecco's Modified Eagle Medium supplemented with non-essential amino acids, Penicillin/Streptomycin/Glutamine, G418 and FBS. At >80% confluency, aspirate the media from the flask and rinse with 10 mL Calcium/Magnesium-free PBS. Add 5 mL of 1× trypsin (prepared in Ca/Mg Free PBS) to T-225 flask and return flask to 37° C./CO2 incubator for 2-3 minutes. To dislodge the cell, gently bang the side of the flask with your hand. Triturate the cells completely and then transfer the cells to 25 mL complete media. Centrifuge at 1,500 rpm for 6 min followed by resuspension in complete growth media and determine cell concentration. For typical re-seeding, 4E6 cells/T-225 flask will attain >80% confluency in 4 days. Under ideal growth conditions and appropriate tissue culture practices, this cell line is stable for 40-45 passages. FluxOR Kit Components (Invitrogen F10017) • FluxOR™ Reagent (Component A) • FluxOR™ Assay Buffer (Component B)—10× Concentrate • PowerLoad™ Concentrate (Component C)—100× Concentrate • Probenecid (Component D)—Lyophilized sample is kept at −20° C. Water soluble, 100× after solubilization in 1 mL water. Store at 4° C. • FluxOR™ Chloride-free Buffer (Component E)—5× Concentrate • Potassium sulfate (K2SO4) Concentrate (Component F)—125 mM in water. Store at 4° C. • Thallium sulfate (Tl2SO4) Concentrate (Component G)—50 mM in water. Store at 4° C. • DMSO (dimethyl sulfoxide, Component H)—1 mL (100%) Reagent Preparation: FluxOR Working Solutions • 1000× FluxOR™ Reagent: Reconstitute a vial of component A in 100 μl DMSO; Mix well; Store 10 μl aliquots at −20° C. • 1× FluxOR™ Assay Buffer: Dilute Component B 10-fold with water; Adjust pH to 7.4 with Hepes/NaOH; Filter and store at 4° C. • Probenecid/Assay Buffer: 100 mL of 1× FluxOR™ Assay Buffer; 1 mL of reconstituted component D; Store at 4° C. • Loading Buffer (per microplate): 10 μl 1000× FluxOR™ Reagent; 100 μl component C; 10 mL Probenecid/Assay Buffer • Compound Buffer (per microplate): 20 mL Probenecid/Assay Buffer; 0.3 mM ouabain (10 mM ouabain in water can be stored in amber bottle/aluminum foil at room temperature); Test compound • 1× FluxOR™ Chloride-Free Buffer: Prepare 1× working solution in water. Can be stored at room temperature • Stimulant Buffer (prepared at 5× final concentration in 1× FluxOR™ Chloride-Free Buffer): 7.5 mM Thallium sulfate and 0.75 mM Potassium sulfate (to give a final assay concentration of 3 mM Thallium/0.3 mM Potassium). Store at 4° C. when not in use. If kept sterile, this solution is good for months. Assay Protocol—The ROMK channel functional thallium flux assay is performed in 384 wells, using the FLIPR-Tetra instrument. HEK-hKir1.1 cells are seeded in Poly-D-Lysine microplates and kept in a 37° C.-10% CO2 incubator overnight. On the day of the experiment, the growth media is replaced with the FluxOR™ reagent loading buffer and incubated, protected from light, at ambient temperature (23-25° C.) for 90 min. The loading buffer is replaced with assay buffer±test compound followed by 30 min incubation at ambient temperature, where the Thallium/Potassium stimulant is added to the microplate. Step Protocol • 1. Seed HEK-hKir1.1 cells (50 μl at 20,000 cells/well) in 384-well PDL coated Microplates • 2. Allow cells to adhere overnight in humidified 37° C./10% CO2 incubator • 3. Completely remove cell growth media from microplate and replace with 25 μl loading buffer • 4. Incubate Microplate at room temperature, protected form light, for 90 min • 5. Remove loading buffer and replace with 25 μl 1× Assay Buffer±test compound. • 6. Incubate microplate at room temperature, protected from light, for 30 min • 7. At FLIPR-Tetra 384: Add stimulant (Thallium/Potassium) solution to microplate and monitor fluorescence. […]

One may read the IC50 as the point on the concentration scale where inhibition reaches its midpoint. In turn, `CC1=C(N2C(=O)C3(CCN(C[C@H](O)c4ccc(-n5cnnn5)nc4C)CC3)CC2C)COC1=O` (mixture of isomers) [Example 56, 8-{(2R)-2-hydroxy-2-[2-methyl-6-(1H-tetrazol-1-yl)pyridin-3-yl]ethyl}-3-methyl-2-(4-methyl-5-oxo-2,5-dihydrofuran-3-yl)-1-oxo-2-aza-8-azoniaspiro[4.5]decane] yielded a half-inhibitory concentration (IC50) of 20 nM.
The result for `CC1=C(N2C(=O)C3(CCN(C[C@H](O)c4ccc(-n5cnnn5)nc4C)CC3)CC2C)COC1=O` (mixture of isomers) [Example 57, 8-{(2R)-2-hydroxy-2-[2-methyl-6-(1H-tetrazol-1-yl)pyridin-3-yl]ethyl}-3-methyl-2-(4-methyl-5-oxo-2,5-dihydrofuran-3-yl)-1-oxo-2-aza-8-azoniaspiro[4.5]decane] reads 20 nM; that for `CC1=C(N2C(=O)C3(CCN(C[C@@H](O)c4ccc(-n5cnnn5)nc4C)CC3)CC2C)COC1=O` (mixture of isomers) [Example 58, 8-{(2S)-2-hydroxy-2-[2-methyl-6-(1H-tetrazol-1-yl)pyridin-3-yl]ethyl}-3-methyl-2-(4-methyl-5-oxo-2,5-dihydrofuran-3-yl)-1-oxo-2-aza-8-azoniaspiro[4.5]decane], 60 nM; that for `CC1=C(N2C(=O)C3(CCN(C[C@@H](O)c4ccc(-n5cnnn5)nc4C)CC3)CC2C)COC1=O` (mixture of isomers) [Example 59, 8-{(2S)-2-hydroxy-2-[2-methyl-6-(1H-tetrazol-1-yl)pyridin-3-yl]ethyl}-3-methyl-2-(4-methyl-5-oxo-2,5-dihydrofuran-3-yl)-1-oxo-2-aza-8-azoniaspiro[4.5]decane], 50 nM.
For `Cc1nc(-n2cnnn2)cnc1C(O)CN1CCC2(CC1)C[C@H](C)N(C1=CC(=O)OC1)C2=O` (mixture of isomers) [Example 165, (3S)-8-{2-hydroxy-2-[3-methyl-5-(1H-tetrazol-1-yl)pyrazin-2-yl]ethyl}-3-methyl-2-(5-oxo-2,5-dihydrofuran-3-yl)-2,8-diazaspiro[4.5]decan-1-one] the value was 10 nM; for `Cc1nc(-n2cnnn2)cnc1C(O)CN1CCC2(CC1)C[C@H](C)N(C1=CC(=O)OC1)C2=O` (mixture of isomers) [Example 168, (3S)-8-{2-hydroxy-2-[3-methyl-5-(1H-tetrazol-1-yl)pyrazin-2-yl]ethyl}-3-methyl-2-(5-oxo-2,5-dihydrofuran-3-yl)-2,8-diazaspiro[4.5]decan-1-one], 10 nM.
The result for `Cc1nc(-n2cnnn2)cnc1C(O)CN1CCC2(CC1)C[C@H](C)N(C1=CC(=O)OC1)C2=O` (mixture of isomers) [Example 169, (3S)-8-{2-hydroxy-2-[3-methyl-5-(1H-tetrazol-1-yl)pyrazin-2-yl]ethyl}-3-methyl-2-(5-oxo-2,5-dihydrofuran-3-yl)-2,8-diazaspiro[4.5]decan-1-one] reads 10 nM; that for `COC1CN(C2=CC(=O)OC2)C(=O)C12CCN(C[C@H](O)c1ccc(-n3cnnn3)nc1)CC2` (mixture of isomers) [Example 206, 8-((R)-2-(6-(1H-tetrazol-1-yl)pyridin-3-yl)-2-hydroxyethyl)-4-methoxy-2-(5-oxo-2,5-dihydrofuran-3-yl)-2,8-diazaspiro[4.5]decan-1-one], 50 nM.
`COC1CN(C2=CC(=O)OC2)C(=O)C12CCN(C[C@H](O)c1ccc(-n3cnnn3)nc1)CC2` (mixture of isomers) [Example 207, 8-((R)-2-(6-(1H-tetrazol-1-yl)pyridin-3-yl)-2-hydroxyethyl)-4-methoxy-2-(5-oxo-2,5-dihydrofuran-3-yl)-2,8-diazaspiro[4.5]decan-1-one] came in with an IC50 of 40 nM.
The result for `O=C1C=C(N2C(=O)C3(CCN(C[C@H](O)c4ccc(-n5cnnn5)nn4)CC3)CC2C2CC2)CO1` (mixture of isomers) [Example 210, 3-cyclopropyl-8-{(2S)-2-hydroxy-2-[6-(1H-tetrazol-1-yl)pyridazin-3-yl]ethyl}-2-(5-oxo-2,5-dihydrofuran-3-yl)-2,8-diazaspiro[4.5]decan-1-one] reads 70 nM; that for `O=C1C=C(N2C(=O)C3(CCN(C[C@H](O)c4ccc(-n5cnnn5)nn4)CC3)CC2C2CC2)CO1` (mixture of isomers) [Example 211, 3-cyclopropyl-8-{(2S)-2-hydroxy-2-[6-(1H-tetrazol-1-yl)pyridazin-3-yl]ethyl}-2-(5-oxo-2,5-dihydrofuran-3-yl)-2,8-diazaspiro[4.5]decan-1-one], 40 nM.
`O=C1C=C(N2C(=O)C3(CCN(C[C@H](O)c4cnc(-n5cnnn5)cn4)CC3)CC2C2CC2)CO1` (mixture of isomers) [Example 212, 3-cyclopropyl-8-{(2S)-2-hydroxy-2-[5-(1H-tetrazol-1-yl)pyrazin-2-yl]ethyl}-2-(5-oxo-2,5-dihydrofuran-3-yl)-2,8-diazaspiro[4.5]decan-1-one] displayed an IC50 of 120 nM.
For `O=C1C=C(N2C(=O)C3(CCN(C[C@H](O)c4cnc(-n5cnnn5)cn4)CC3)CC2C2CC2)CO1` (mixture of isomers) [Example 213, 3-cyclopropyl-8-{(2S)-2-hydroxy-2-[5-(1H-tetrazol-1-yl)pyrazin-2-yl]ethyl}-2-(5-oxo-2,5-dihydrofuran-3-yl)-2,8-diazaspiro[4.5]decan-1-one] the value was 40 nM.
For `O=C1C=C(N2C(=O)C3(CCN(C[C@H](O)c4ccc(-n5cnnn5)nc4)CC3)CC2C2CC2)CO1` (mixture of isomers) [Example 214, 3-cyclopropyl-8-{(2R)-2-hydroxy-2-[6-(1H-tetrazol-1-yl)pyridin-3-yl]ethyl}-2-(5-oxo-2,5-dihydrofuran-3-yl)-2,8-diazaspiro[4.5]decan-1-one] the value was 30 nM; for `O=C1C=C(N2C(=O)C3(CCN(C[C@H](O)c4ccc(-n5cnnn5)nc4)CC3)CC2C2CC2)CO1` (mixture of isomers) [Example 215, 3-cyclopropyl-8-{(2R)-2-hydroxy-2-[6-(1H-tetrazol-1-yl)pyridin-3-yl]ethyl}-2-(5-oxo-2,5-dihydrofuran-3-yl)-2,8-diazaspiro[4.5]decan-1-one], 30 nM; for `CCC1CC2(CCN(C[C@H](O)c3ccc(-n4cnnn4)nc3)CC2)C(=O)N1C1=CC(=O)OC1` (mixture of isomers) [Example 218, 3-ethyl-8-{(2R)-2-hydroxy-2-[6-(1H-tetrazol-1-yl)pyridin-3-yl]ethyl}-2-(5-oxo-2,5-dihydrofuran-3-yl)-2,8-diazaspiro[4.5]decan-1-one], 10 nM.
The result for `CCC1CC2(CCN(C[C@H](O)c3ccc(-n4cnnn4)nc3)CC2)C(=O)N1C1=CC(=O)OC1` (mixture of isomers) [Example 219, 3-ethyl-8-{(2R)-2-hydroxy-2-[6-(1H-tetrazol-1-yl)pyridin-3-yl]ethyl}-2-(5-oxo-2,5-dihydrofuran-3-yl)-2,8-diazaspiro[4.5]decan-1-one] reads 10 nM.
